Measured values as given in article PMC7084386, “Sulfonamide Inhibition Studies of an α-Carbonic Anhydrase from Schistosoma mansoni, a Platyhelminth Parasite Responsible for Schistosomiasis” (International Journal of Molecular Sciences, 2020).
Where two headings read alike, the source gives them in different places.

Molecular target: T1, SmCA (Schistosoma mansoni, UniProt A0A4Y5UX87)
T1 construct: rSmCA N21-A298, signal peptide and C-terminal GPI-anchoring signal removed; Igk leader, C-terminal myc and His6 tags; secreted by CHO-S cells, IMAC; codon-optimized gene; native ~37 kDa GPI-linked glycoprotein
T1 sequence (A0A4Y5UX87 21-298): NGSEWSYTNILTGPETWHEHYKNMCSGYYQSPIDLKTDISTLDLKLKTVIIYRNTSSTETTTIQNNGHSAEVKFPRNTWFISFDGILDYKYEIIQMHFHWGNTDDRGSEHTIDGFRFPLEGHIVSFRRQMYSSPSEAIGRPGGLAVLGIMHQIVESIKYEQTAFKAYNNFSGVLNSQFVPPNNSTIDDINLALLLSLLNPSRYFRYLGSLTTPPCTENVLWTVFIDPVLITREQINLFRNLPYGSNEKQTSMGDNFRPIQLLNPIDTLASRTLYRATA
Experiment: stopped-flow CO2 hydrase assay
Assay type: biochemical
From the text: stopped-flow CO2 hydrase assay on SmCA

SMILES	Ki (read-out: SmCA ^b) [nM]	Ki [nM]
Nc1cccc(S(N)(=O)=O)c1 [compound 1, 1]	8420 ± 177	
Nc1ccc(S(N)(=O)=O)cc1 [compound 2, 2]	6820 ± 150	
NS(=O)(=O)c1cccc(S(N)(=O)=O)c1 [compound 3, 3]	916 ± 23.8	
Cc1ccc(S(N)(=O)=O)cc1 [compound 4, 4]	4530 ± 90	
NCc1ccc(S(N)(=O)=O)cc1 [compound 5, 5]	9560 ± 191	
NCCc1ccc(S(N)(=O)=O)cc1 [compound 6, 6]		7240 ± 144
Nc1ccc(S(N)(=O)=O)cc1F [compound 7, 7]	3190 ± 70	
Nc1ccc(S(N)(=O)=O)cc1Cl [compound 8, 8]	737 ± 19.1	
Nc1ccc(S(N)(=O)=O)cc1Br [compound 9, 9]	808 ± 16.9	
NS(=O)(=O)c1cc(Cl)cc(Cl)c1O [compound 10, 10]	9270 ± 185	
Nc1cc(C(F)(F)F)c(S(N)(=O)=O)cc1S(N)(=O)=O [compound 11, 11]	183 ± 9.1	
Nc1cc(Cl)c(S(N)(=O)=O)cc1S(N)(=O)=O [compound 12, 12]	645 ± 19.9	
Nc1nnc(S(N)(=O)=O)s1 [compound 13, 13]	137 ± 6.5	
Cn1nc(S(N)(=O)=O)sc1=N [compound 14, 14]	325 ± 6.5	
NS(=O)(=O)c1ccc(O)cc1 [compound 15, 15]	758 ± 26.5	
NS(=O)(=O)c1ccc(CO)cc1 [compound 16, 16]	1460 ± 32.1	
NS(=O)(=O)c1ccc(CCO)cc1 [compound 17, 17]	606 ± 21.3	
NS(=O)(=O)c1ccc(C(=O)O)cc1 [compound 18, 18]	821	
Nc1nccc(Nc2ccc(S(N)(=O)=O)cc2)n1 [compound 19, 19]	1830 ± 36.6	
Nc1ccc(S(=O)(=O)Nc2nnc(S(N)(=O)=O)s2)cc1 [compound 20, 20]	124 ± 5.9	
NS(=O)(=O)c1ccc(CCNS(=O)(=O)c2ccc([N+](=O)[O-])cc2CO)cc1 [compound 21, 21]	163 ± 6.5	
Nc1ccc(S(=O)(=O)Nc2ccc(S(N)(=O)=O)cc2)cc1 [compound 22, 22]	550 ± 14.8	
Nc1ccc(S(=O)(=O)NCc2ccc(S(N)(=O)=O)cc2)cc1 [compound 23, 23]	524 ± 15.7	
Nc1ccc(S(=O)(=O)NCCc2ccc(S(N)(=O)=O)cc2)cc1 [compound 24, 24]	183 ± 4.5	
